From patent US9737502B2, “Calebin A for hepatic steatosis” (SAMI LABS LIMITED, priority 2011, dated 2017)

Legend:
[1] = test system: TNF-α; test: Intracellular TNF-α in LPS-stimulated murine neutrophils (flow cytometry); type: cell-based; conditions: 100 μg/ml
Experimental: The present inventors also adduce extra evidence to support the ability of Calebin A to suppress intracellular TNF and extracellular IL-1β in murine neutrophil systems (Table II, Table III). Neutrophils are isolated by histopaque gradient method tested for their ability to produce in vitro TNF-α following stimulation with Lipopolysaccharide (LPS). The cells were incubated with phycoerythrin (PE)-labeled anti-mouse TNF-α in the dark, and after being washed with sterile PBS, samples were resuspended in PBS (pH 7.4) and acquired directly on the flow cytometer (BDLSR; Becton Dickinson). A fluorescence trigger was set on the PE […] parameter of the gated neutrophil populations (10,000 events). Rolipram at 100 μg/ml was used as standard inhibitor of TNF-α in this study. Fluorescence compensation, data analysis, and data presentation were performed using Cell Quest Pro software (Becton Dickinson).

[2] = test system: IL-1β; test: Extracellular IL-1β in LPS-stimulated murine neutrophils; type: cell-based; conditions: 100 μg/ml

In the case of `COc1ccc(C2CNC(=O)C2)cc1OC1CCCC1` (stereo not shown) [Rolipram, reference compound], the “% Activity (suppression of TNF-α expression)” value [1] was 72.13%↓, the “Expression of TNF-α Mean ± S.E” value ([1]; LPS Control 2.62 ± 0.01) was 0.73 ± 0.09 and the “% Activity (suppression of IL-1 β expression)” value [2] was 56.52%↓. The “IL-1β Concentration” value ([2]; LPS Control 51.80 ± 2.18) was 22.52 ± 1.60 pg/mL.
